Patent US20220031670A1, “PHARMACEUTICAL COMBINATIONS FOR USE IN THE TREATMENT OF NEOPLASTIC DISEASES” (Basilea Pharmaceutica International AG, priority 2018, published 2022)
Marks after values point to notes of the source that are not given here. Each block holds one molecule with its values, some of them ahead of it.

How the values were obtained:
[1] = Pharmacokinetic profile in mouse plasma (LC-MS/MS), single agents versus combination; format: in vivo, PAXF1657 tumor bearing mice; conditions: 10 minutes to 24 hours, BAL101553 oral, Gemcitabine 240 mg/kg i.v. 4 hours before BAL101553
Description: PAXF1657 tumor bearing mice of the identical strain were treated either with BAL101553 oral 10 mg/kg, Gemcitabine 240 i.v. mg/kg or with a combination of BAL101553 and Gemcitabine where Gemcitabine was administered 4 hours before BAL101553. Control animals received appropriate vehicle control. The mice were dosed until steady state was reached (BAL101553 was dosed d1-d3 and Gemcitabine was dosed on day 3, the doses used for the combination-treatment matched those used in the monotherapy). Blood was taken from every animal according to a determined schedule covering a time window of 10 minutes to 24 hours, processed for plasma and subsequently analyzed by LC-MS/MS for the determination of BAL27862 (parent drug of BAL101553) and Gemcitabine concentrations (ng/ml plasma). Data points represent mean values of ng/ml plasma concentration+/−SEM (n=3 animals). […]
The following calibration ranges in mouse plasma were applied: 1.00 to 500 ng/mL and 10 to 10000 ng/mL for BAL27862 and 10.0 to 10000 ng/mL for BAL101553 and Gemcitabine. Thus, the limit-of-quantitation (LOQ) was: 1 ng/mL for BAL27862 and 10.0 ng/mL for BAL101553 and Gemcitabine. […]

[2] = test system: patient-derived pancreatic tumour PAXF1657 xenograft; assay: Antitumor efficacy and induction of cures in the patient-derived PAXF1657 pancreatic xenograft model; format: in vivo, female NMRI nu/nu mice; conditions: for # of regressed tumors (total) / T/C: day 21 after first dose; for # of confirmed cures (total) / # of tumors with TV ≤ 4 mm^3 (total) / % cures: day 60 after first dose (endpoint); for tumor free animals / cures (in words): single agent treatment (BAL101553 even at 16 mg/kg; Gemcitabine SoC)
Description: The tumor xenografts are derived from surgical specimens from cancer patients. Following excision at surgery, tumor pieces were subcutaneously implanted into immunodeficient mice and are therefore referred to as patient tumor explants passaged subcutaneously in nude mice or as patient-derived tumor xenografts (PDX). Establishment and characterization of the PDXs was performed following their primary implantation into immunodeficient mice (passage 1). The tumor xenografts were passaged until establishment of a stable growth pattern. At that point, master stocks of early passage PDXs were frozen in liquid nitrogen. Usually, a particular stock batch is only used for a limited number of further passages.
Tumor fragments for implantation were obtained from xenografts in serial passage in female NMRI nu/nu mice (NMRI-Foxn1nu). After removal from donor mice, tumors were cut into fragments (3-4 mm edge length) and placed in PBS containing 10% penicillin/streptomycin. Recipient female mice (10 weeks old NMRI-Foxn1nu animals) were anesthetized by inhalation of isoflurane and received unilateral tumor implants of PAXF1657 tumors subcutaneously in the flank.
Mice and tumor implants were monitored daily until solid tumor growth was detectable in a sufficient number of animals. At randomization, the volume of growing tumors was determined. Tumors were measured (mm) in two dimensions using calipers, and volume was calculated using the formula: Tumor Volume (TV) (mm^3)=(width^2×length)/2. […] Sixteen days after tumor cell implantation, on Day 0 of the study, mice were randomized into groups of 10 animals, with group median tumor volumes of 106.6-109.2 mm^3 and body weights of 25.3-27.0 g.
The solution of BAL101553 with a concentration of 1.6 mg/ml for dosing at 16 mg/kg and as stock solution for the preparation of the other dosing solutions was prepared at the beginning of the study by dissolving 595.2 mg of the provided powder in 300 ml vehicle (stirring/vortexing/sonicating if necessary). The acidity of this solution was adjusted to pH 5 with a 1% sodium acetate solution; afterwards the total volume was adjusted to 372 ml by addition of the vehicle (99.7% (v/v) saline solution (0.9% (w/v) NaCl), 0.3% (v/v) sodium acetate, pH 5). The stock solution was sterile filtered and aliquoted into vials of each 12 ml that were stored at −20° C. One vial was thawed on each dosing day. For the 16 mg/kg dose, the solution was applied undiluted; for 8 mg/kg dose, one volume of the stock solution was diluted with one volume vehicle prior to application; and for 10 mg/kg dose, one volume of the stock solution was diluted with 0.6 volumes vehicle
The Gemcitabine dosing solution at a concentration of 24 mg/ml for dosing at 240 mg/kg was prepared once per week on the dosing day by dissolving 591.89 mg of Gemcitabine-HCl (Gemedac®, Medac Germany) corresponding to 264 mg active pharmaceutical ingredient in 11 ml of the vehicle (0.9% (w/v) NaCl). The dosing solution was administered in a dose volume of 10 ml/kg.
All doses were adjusted to 10 mL/kg. […] Gemcitabine was administered i.v. and BAL101553 orally.
The antitumor effect of the combination treatment with BAL101553 (prodrug of BAL27862) and gemcitabine was evaluated in the established in vivo subcutaneous patient-derived pancreatic mouse xenograft model PAXF1657. By using 3 different dosing regimens of BAL101553 as monotherapy, standard of care (SoC) dosing of gemcitabine monotherapy and the combination treatment of two different dosing regimens of BAL101553 with SoC gemcitabine, the anticancer effect of single agent treatments and of the combined treatments were determined and compared. […]

[3] = Tolerability (body weight, mortalities) in the PAXF1657 pancreatic xenograft model
Description: Animals were housed in individually ventilated cages ([…] Sealsafe™-IVC-System, […], Hohenpeissenberg, Germany), depending on group size, either in type III or type II long cages. They were kept under a 14 L:10D artificial light cycle. The temperature inside the cages was maintained at 25±1° C. with a relative humidity of 40-70% and an air change (AC) rate in the cage of 60-65 AC/hour. Dust-free bedding consisting of aspen wood chips with approximate dimensions of 5×5×1 mm (ABEDD®-LAB & VET Service GmbH, Vienna, Austria, Product Code: LTE E-001) and additional nesting material were used. The cages including the bedding and the nesting material were changed weekly. The animals were fed autoclaved Teklad Global 19% Protein Extruded Diet (T.2019S.12) from Envigo RMS SARL and had access to sterile filtered and acidified (pH 2.5) tap water that was changed twice weekly. Feed and water were provided ad libitum. All materials were autoclaved prior to use. Animals were provided with a nutrient fortified water gel (DietGel® Recovery from ClearH2O, Maine, USA) from day 0 to day 45, which was changed every other day.
Groups of mice (n=10) bearing PAXF1657 tumors were dosed as outlined in Table 1. All doses were adjusted to 10 mL/kg. The control groups received oral doses of vehicle (pH 5 buffered 0.9% NaCl solution). Gemcitabine was administered i.v. and BAL101553 orally. When Gemcitabine and BAL0101553 were dosed in combination, Gemcitabine was administered first followed by a delay of 4 h for the BAL0101553 dosing.
Body weights and tumor volumes were recorded twice weekly until the end of the on day 60. These parameters were analyzed and graphically represented by using GraphPad-Prism™ 7 for Windows according to standard procedure. Tumor growth regression was defined as TV (at day 21)−TV (day 0)<0. […] Tumor free animals at the end of the study time (day 60) were assessed for residual PAXF1657 tumor cells by pathological methods. Skin und subcutaneous tissue including the tumor cell inoculation site from the flank region were resected, preserved in formalin and embedded in paraffin. Sections of approximately 5 μm were mounted on glass slides and stained with hematoxylin/eosin and were evaluated by a trained pathologist, to identify residual tumor cells at the site of injection, and were being reported as positive for the existence of residual tumor cells or as negative for a complete lack of any evidence of residual tumor cells.
Dosing schemes are outlined in Table 1.

[4] = BAL101553 p.o. 8 mg/kg qd (h:4) x42
[5] = BAL101553 p.o. 10 mg/kg qd (h:4) x42
[6] = BAL101553 p.o. 16 mg/kg qd (h:4) x42
[7] = Gemcitabine i.v. 240 mg/kg qw (h:0) x6

plasma concentrations, single agents versus combination [1]: did not change significantly
SMILES: N#CCCNc1nonc1-c1nc2ccccc2n1CC(=O)c1ccc(N)cc1 [BAL27862, 3-(4-{1-[2-(4-Amino-phenyl)-2-oxo-ethyl]-1H-benzoimidazol-2-yl}-furazan-3-ylamino)-propionitrile]

SMILES: N#CCCNc1nonc1-c1nc2ccccc2n1CC(=O)c1ccc(NC(=O)[C@@H](N)CCCCN)cc1 [BAL101553, (S)-2,6-Diamino-hexanoic acid [4-(2-{2-[4-(2-cyano-ethylamino)-furazan-3-yl]-benzoimidazol-1-yl}-acetyl)-phenyl]-amide]
# of regressed tumors (total) [2, 4]: 0 (10)
T/C [2, 4]: 0.52
# of confirmed cures (total) [2, 4]: 0 (10)
# of tumors with TV ≤ 4 mm^3 (total) [2, 4]: 0 (20)
% cures [2, 4]: 0%
# of regressed tumors (total) [2, 5]: 0 (10)
T/C [2, 5]: 0.33
# of confirmed cures (total) [2, 5]: 0 (10)
# of tumors with TV ≤ 4 mm^3 (total) [2, 5]: 0 (10)
% cures [2, 5]: 0%
# of regressed tumors (total) [2, 6]: 0 (10)
T/C [2, 6]: 0.28
# of confirmed cures (total) [2, 6]: 0 (10)
# of tumors with TV ≤ 4 mm^3 (total) [2, 6]: 0 (10)
% cures [2, 6]: 0%
tumor free animals / cures (in words) [2]: did neither lead to tumor free animals
Mortalities ([3]; female, NMRI nu/nu, mouse, in vivo, po, 8 mg/kg, 21 day): 0/10
Mortalities ([3]; female, NMRI nu/nu, mouse, in vivo, po, 10 mg/kg, 21 day): 0/10
Mortalities ([3]; female, NMRI nu/nu, mouse, in vivo, po, 16 mg/kg, 21 day): 0/10
Body-weight change ([3]; mouse, in vivo, po, 8 mg/kg): 0.9 ± 0.8 g
Body-weight change ([3]; mouse, in vivo, po, 10 mg/kg): 1.0 ± 1.2 g
Body-weight change ([3]; mouse, in vivo, po, 16 mg/kg): 1.1 ± 0.9 g

SMILES: Nc1ccn([C@@H]2O[C@H](CO)[C@@H](O)C2(F)F)c(=O)n1 [Gemcitabine, gemcitabine, reference compound]
# of regressed tumors (total) [2, 7]: 4 (10)
T/C [2, 7]: 0.03
# of confirmed cures (total) [2, 7]: 0 (10)
# of tumors with TV ≤ 4 mm^3 (total) [2, 7]: 1 (10)
% cures [2, 7]: 0%
tumor free animals / cures (in words) [2]: did not lead to tumor free animals (no cures)
tumor regression (in words) ([2]; single agent treatment (BAL101553 even at 16 n/kg; Gemcitabine SoC)): induced regression in some of the animals
Mortalities ([3]; Gemcitabine i.v. 240 mg/kg qw (h:0) x6, day 21 after first dose, 1 animal culled on day 8 (body-weight loss of more than 20%)): 1/10*
Body-weight change ([3]; mouse, in vivo, iv, 240 mg/kg): 0.9 ± 0.8 g
plasma concentrations, single agents versus combination [1]: did not change significantly
